Legend:
Assay in all cases: Protein kinase selectivity panel
Type in all cases: biochemical
Details in all cases: 1.0 μM compound, 10 μM ATP
[1] = biological target: CDK7/cyclinH/MAT1(h) (Homo sapiens, UniProt P50613)
Experimental: (§1) Protein kinase selectivity assays were performed as described in the scientific literature (Davies, S. P., et al., Biochem. J. 2000, 351, 95-105). Briefly, protein kinases were assayed for their ability to phosphorylate the appropriate peptide/protein substrates in the presence of 1.0 μM compound. Assays were done using 10 μM ATP and were linear with respect to time. The protein kinase selectivity assays were performed by Upstate Cell Signaling Solutions using Upstate's KinaseProfiler™ Selectivity Screening Service.

[2] = biological target: T1, ZAP-70(h) (Homo sapiens, UniProt P43403)
T1 construct: purchased Upstate Cell Signaling Solutions (KinaseProfiler Selectivity Screening Service)
T1 sequence (P43403 1-619): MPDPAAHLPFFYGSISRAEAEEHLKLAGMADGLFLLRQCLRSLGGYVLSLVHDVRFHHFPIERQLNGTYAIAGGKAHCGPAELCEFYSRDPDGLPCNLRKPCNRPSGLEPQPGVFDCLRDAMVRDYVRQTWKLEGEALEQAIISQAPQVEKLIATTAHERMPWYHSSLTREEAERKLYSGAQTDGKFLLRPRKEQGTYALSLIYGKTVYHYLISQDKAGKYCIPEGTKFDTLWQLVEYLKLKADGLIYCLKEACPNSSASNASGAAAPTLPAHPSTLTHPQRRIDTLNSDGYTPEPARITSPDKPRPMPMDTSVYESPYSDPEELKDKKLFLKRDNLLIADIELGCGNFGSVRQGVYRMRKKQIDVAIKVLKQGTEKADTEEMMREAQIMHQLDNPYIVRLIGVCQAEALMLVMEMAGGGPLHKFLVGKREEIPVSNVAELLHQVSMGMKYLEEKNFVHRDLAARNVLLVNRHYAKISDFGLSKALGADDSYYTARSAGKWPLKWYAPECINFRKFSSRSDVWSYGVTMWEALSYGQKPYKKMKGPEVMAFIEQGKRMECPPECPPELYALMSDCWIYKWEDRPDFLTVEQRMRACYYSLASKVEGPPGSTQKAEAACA
Experimental: as §1

[3] = biological target: T2, SAPK4(h) (Homo sapiens, UniProt O15264)
T2 sequence (O15264 1-365): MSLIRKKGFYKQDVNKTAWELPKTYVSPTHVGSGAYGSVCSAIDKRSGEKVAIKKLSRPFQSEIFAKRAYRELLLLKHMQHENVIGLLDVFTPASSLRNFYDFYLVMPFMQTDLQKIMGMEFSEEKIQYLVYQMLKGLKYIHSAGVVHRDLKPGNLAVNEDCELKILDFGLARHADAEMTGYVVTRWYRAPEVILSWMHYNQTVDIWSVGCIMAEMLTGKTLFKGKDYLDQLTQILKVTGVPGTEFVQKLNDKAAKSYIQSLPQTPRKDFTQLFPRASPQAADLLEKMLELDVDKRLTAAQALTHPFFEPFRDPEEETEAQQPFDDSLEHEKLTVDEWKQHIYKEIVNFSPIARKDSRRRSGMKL
Experimental: as §1

[4] = biological target: T3, PDK1(h) (Homo sapiens, UniProt O15530)
T3 sequence (O15530 1-556): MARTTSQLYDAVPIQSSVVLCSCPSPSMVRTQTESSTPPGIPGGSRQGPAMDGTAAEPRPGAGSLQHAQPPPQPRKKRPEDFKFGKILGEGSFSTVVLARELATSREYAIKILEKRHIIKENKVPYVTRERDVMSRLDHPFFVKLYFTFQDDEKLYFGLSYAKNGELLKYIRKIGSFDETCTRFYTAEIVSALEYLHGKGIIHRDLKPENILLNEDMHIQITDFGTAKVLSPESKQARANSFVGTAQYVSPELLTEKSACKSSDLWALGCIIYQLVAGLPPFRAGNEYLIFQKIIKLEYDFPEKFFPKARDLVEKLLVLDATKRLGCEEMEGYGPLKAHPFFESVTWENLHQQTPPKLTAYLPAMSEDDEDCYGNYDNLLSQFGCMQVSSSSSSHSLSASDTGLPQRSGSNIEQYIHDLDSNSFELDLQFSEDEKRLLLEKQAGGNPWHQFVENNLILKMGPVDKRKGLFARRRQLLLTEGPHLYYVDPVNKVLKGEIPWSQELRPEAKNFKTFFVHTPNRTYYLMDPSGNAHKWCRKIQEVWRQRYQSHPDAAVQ
Experimental: as §1

[5] = biological target: ALK(h) (Homo sapiens, UniProt Q9UM73)
Experimental: as §1

[6] = biological target: Abl(m) (Mus musculus, UniProt P00520)
Experimental: as §1

[7] = biological target: CHK2(h) (Homo sapiens, UniProt O96017)
CHK2(h), sequence (O96017 whole entry): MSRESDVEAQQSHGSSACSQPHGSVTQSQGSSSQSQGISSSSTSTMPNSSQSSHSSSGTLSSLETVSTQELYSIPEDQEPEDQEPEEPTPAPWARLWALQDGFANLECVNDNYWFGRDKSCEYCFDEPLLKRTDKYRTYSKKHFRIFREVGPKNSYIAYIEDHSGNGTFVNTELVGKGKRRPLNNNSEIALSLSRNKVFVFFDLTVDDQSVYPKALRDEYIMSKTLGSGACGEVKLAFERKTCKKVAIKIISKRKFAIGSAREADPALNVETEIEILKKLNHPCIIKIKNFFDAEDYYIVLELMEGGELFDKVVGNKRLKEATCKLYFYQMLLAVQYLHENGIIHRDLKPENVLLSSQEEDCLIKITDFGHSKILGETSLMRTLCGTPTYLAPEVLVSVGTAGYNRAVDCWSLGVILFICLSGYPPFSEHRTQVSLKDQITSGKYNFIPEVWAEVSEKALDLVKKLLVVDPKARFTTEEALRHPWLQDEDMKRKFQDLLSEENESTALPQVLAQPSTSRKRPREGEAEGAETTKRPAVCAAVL
Experimental: as §1

[8] = biological target: PKCδ(h) (Homo sapiens, UniProt Q05655)
PKCδ(h), sequence (Q05655 whole entry): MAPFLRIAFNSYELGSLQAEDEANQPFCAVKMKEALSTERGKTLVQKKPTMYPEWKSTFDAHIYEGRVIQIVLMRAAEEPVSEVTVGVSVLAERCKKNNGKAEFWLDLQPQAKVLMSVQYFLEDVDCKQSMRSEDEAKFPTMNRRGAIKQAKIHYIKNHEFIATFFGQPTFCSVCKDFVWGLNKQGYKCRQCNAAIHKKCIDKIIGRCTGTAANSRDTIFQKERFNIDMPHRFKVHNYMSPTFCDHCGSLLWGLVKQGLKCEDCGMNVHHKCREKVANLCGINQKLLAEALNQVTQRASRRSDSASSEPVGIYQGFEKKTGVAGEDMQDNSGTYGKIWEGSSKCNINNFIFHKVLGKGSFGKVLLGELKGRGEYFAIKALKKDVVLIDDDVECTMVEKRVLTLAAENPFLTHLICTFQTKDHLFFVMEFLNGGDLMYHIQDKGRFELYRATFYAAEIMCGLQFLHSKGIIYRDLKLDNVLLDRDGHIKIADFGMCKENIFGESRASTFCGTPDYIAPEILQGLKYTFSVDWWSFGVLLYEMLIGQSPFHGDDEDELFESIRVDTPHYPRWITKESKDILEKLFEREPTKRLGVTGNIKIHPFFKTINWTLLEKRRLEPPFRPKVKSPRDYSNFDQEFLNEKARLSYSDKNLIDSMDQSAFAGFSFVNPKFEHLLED
Experimental: as §1

[9] = biological target: T4, Bmx(h) (Homo sapiens, UniProt P51813)
T4 sequence (P51813 1-675): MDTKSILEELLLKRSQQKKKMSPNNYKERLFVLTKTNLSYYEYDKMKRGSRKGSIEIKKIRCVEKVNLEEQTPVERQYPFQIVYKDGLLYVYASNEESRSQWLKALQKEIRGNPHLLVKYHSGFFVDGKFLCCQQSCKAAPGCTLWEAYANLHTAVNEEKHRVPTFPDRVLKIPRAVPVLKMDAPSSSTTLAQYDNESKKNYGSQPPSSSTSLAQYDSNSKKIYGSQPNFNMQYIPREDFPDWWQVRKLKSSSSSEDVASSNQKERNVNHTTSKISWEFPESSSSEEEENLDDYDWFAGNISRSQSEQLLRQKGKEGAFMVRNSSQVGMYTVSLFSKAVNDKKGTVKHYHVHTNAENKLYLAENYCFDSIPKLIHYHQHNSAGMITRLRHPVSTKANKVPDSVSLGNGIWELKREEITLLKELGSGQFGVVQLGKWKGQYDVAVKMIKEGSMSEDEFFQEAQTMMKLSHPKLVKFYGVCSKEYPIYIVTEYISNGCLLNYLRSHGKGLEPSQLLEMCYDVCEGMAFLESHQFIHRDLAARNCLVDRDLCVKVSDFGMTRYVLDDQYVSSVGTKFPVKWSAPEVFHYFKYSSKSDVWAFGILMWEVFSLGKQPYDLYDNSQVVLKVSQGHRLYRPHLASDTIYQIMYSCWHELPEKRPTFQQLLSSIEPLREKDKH
Experimental: as §1

[10] = biological target: Abl(h) (Homo sapiens, UniProt P00519)
Abl(h), sequence (P00519 whole entry): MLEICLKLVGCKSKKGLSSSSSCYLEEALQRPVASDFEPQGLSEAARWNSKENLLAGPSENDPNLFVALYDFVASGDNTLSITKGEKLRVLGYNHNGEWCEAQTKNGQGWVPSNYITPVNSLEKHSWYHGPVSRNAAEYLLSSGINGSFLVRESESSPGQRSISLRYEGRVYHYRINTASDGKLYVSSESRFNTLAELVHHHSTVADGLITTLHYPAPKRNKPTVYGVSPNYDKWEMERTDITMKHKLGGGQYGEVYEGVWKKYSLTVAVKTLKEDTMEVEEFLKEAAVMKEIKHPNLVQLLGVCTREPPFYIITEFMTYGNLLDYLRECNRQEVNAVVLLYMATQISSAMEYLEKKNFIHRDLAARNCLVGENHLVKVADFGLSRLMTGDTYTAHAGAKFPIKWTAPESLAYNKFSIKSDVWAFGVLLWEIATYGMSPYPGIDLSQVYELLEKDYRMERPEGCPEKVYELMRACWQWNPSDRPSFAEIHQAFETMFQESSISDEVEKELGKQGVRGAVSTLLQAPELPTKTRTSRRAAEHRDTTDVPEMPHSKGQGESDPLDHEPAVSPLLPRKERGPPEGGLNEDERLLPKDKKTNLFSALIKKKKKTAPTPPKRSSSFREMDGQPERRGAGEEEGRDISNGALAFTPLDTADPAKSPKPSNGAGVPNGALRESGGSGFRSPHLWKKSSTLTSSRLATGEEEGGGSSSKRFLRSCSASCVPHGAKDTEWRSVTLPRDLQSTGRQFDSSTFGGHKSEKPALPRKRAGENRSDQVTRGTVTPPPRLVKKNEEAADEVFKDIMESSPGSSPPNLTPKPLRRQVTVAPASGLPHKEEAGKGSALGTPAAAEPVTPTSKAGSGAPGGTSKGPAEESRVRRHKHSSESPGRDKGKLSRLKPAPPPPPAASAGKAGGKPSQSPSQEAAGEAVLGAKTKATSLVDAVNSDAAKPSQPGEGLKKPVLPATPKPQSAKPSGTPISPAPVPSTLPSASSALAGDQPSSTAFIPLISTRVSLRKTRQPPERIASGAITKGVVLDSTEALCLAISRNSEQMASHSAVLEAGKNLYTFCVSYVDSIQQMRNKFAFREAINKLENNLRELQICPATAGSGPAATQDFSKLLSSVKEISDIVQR
Experimental: as §1

[11] = biological target: TrkB(h) (Homo sapiens, UniProt Q16620)
TrkB(h), sequence (Q16620 32-822): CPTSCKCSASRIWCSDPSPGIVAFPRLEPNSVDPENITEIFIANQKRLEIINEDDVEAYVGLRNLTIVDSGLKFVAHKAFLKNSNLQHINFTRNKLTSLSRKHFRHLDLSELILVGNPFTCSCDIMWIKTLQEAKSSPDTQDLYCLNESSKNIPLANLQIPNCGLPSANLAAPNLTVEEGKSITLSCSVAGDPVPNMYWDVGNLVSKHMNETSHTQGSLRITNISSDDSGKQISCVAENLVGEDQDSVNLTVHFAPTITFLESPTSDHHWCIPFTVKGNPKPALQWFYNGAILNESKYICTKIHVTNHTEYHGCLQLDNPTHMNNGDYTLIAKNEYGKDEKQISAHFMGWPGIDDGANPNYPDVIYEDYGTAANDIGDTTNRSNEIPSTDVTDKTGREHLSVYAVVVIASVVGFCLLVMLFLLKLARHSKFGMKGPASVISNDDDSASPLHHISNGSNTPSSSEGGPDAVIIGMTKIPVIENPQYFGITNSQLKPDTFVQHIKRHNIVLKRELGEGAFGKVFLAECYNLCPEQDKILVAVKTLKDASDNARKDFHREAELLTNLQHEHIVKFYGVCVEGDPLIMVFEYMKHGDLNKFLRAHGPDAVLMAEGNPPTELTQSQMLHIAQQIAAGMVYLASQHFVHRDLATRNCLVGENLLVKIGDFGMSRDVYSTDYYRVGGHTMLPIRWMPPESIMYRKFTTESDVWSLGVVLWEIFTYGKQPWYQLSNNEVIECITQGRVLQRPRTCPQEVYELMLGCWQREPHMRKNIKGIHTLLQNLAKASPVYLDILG
Experimental: as §1

CDK7/cyclinH/MAT1(h), sequence (P50613 whole entry): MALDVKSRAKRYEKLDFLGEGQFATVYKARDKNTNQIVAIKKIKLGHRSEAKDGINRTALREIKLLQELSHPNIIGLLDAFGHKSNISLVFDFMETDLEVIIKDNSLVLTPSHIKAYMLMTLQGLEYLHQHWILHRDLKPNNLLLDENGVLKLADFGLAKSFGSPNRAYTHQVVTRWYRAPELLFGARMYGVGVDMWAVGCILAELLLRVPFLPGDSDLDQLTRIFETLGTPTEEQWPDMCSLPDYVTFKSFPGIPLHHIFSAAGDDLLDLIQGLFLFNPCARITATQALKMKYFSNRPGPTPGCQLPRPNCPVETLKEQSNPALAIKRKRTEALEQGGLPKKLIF
CDK7/cyclinH/MAT1(h), sequence (P51946 whole entry partner): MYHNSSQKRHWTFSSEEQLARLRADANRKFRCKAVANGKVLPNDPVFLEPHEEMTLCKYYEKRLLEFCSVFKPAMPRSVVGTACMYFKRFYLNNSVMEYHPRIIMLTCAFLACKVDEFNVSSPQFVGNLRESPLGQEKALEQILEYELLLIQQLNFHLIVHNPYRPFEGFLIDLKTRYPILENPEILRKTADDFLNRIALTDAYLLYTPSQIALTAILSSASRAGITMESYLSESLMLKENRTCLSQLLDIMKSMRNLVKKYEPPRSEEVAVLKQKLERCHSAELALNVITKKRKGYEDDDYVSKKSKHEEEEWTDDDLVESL
CDK7/cyclinH/MAT1(h), sequence (P51948 whole entry partner): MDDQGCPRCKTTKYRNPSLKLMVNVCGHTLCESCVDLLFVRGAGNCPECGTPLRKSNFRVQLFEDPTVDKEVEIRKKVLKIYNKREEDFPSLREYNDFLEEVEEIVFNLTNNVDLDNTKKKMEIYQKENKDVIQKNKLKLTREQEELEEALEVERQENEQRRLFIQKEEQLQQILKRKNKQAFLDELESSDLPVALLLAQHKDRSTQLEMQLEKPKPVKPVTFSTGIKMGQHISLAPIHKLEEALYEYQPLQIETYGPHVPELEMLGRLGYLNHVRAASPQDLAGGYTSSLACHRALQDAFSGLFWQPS

| SMILES | Activity at Protein Kinase Assays (% of control), CDK7/cyclinH/MAT1(h) [1] | Activity at Protein Kinase Assays (% of control), ZAP-70(h) [2] | Activity at Protein Kinase Assays (% of control), SAPK4(h) [3] | Activity at Protein Kinase Assays (% of control), PDK1(h) [4] | Activity at Protein Kinase Assays (% of control), ALK(h) [5] | Activity at Protein Kinase Assays (% of control), Abl(m) [6] | Activity at Protein Kinase Assays (% of control), CHK2(h) [7] | Activity at Protein Kinase Assays (% of control), PKCδ(h) [8] | Activity at Protein Kinase Assays (% of control), Bmx(h) [9] | Activity at Protein Kinase Assays (% of control), Abl(h) [10] | Activity at Protein Kinase Assays (% of control), TrkB(h) [11] |
| --- | --- | --- | --- | --- | --- | --- | --- | --- | --- | --- | --- |
| CN(C)c1nc2ccc1CCCCn1cc(c3ccccc31)C1=C(C(=O)NC1=O)c1cn(c3ccccc13)CCC2 [Cpd 1, 31-(dimethylamino)-5,15,25,32-tetraazaheptacyclo[28.2.2.1^5,12.1^18,25.0^6,11.0^13,17.0^19,24]hexatriaconta-1(32),6,8,10,12(36),13(17),18(35),19,21,23,30,33-dodecaene-14,16-dione] | 89 % of control | 113 % of control | 101 % of control | 115 % of control | 103 % of control | 98 % of control | 91 % of control | 73 % of control | 101 % of control | 105 % of control | – |
| CN(C)c1cc2cc(n1)CCCn1cc(c3ccccc31)C1=C(C(=O)NC1=O)c1cn(c3ccccc13)CCC2 [Cpd 2, 20-(dimethylamino)-4,14,19,26-tetraazaheptacyclo[24.6.1.1^7,14.1^18,22.0^2,6.0^8,13.0^27,32]pentatriaconta-1(33),2(6),7(35),8,10,12,18(34),19,21,27,29,31-dodecaene-3,5-dione] | 108 % of control | 103 % of control | 104 % of control | 104 % of control | 55 % of control | 108 % of control | 94 % of control | 100 % of control | 159 % of control | 98 % of control | 98 % of control |
| O=C1NC(=O)C2=C1c1cn(c3ccccc13)CCCc1cc(nc(N3CCCC3)c1)CCCn1cc2c2ccccc21 [Cpd 6, 20-pyrrolidin-1-yl-4,14,19,26-tetraazaheptacyclo[24.6.1.1^7,14.1^18,22.0^2,6.0^8,13.0^27,32]pentatriaconta-1(33),2(6),7(35),8,10,12,18(34),19,21,27,29,31-dodecaene-3,5-dione] | 107 % of control | 115 % of control | 102 % of control | 107 % of control | 58 % of control | 104 % of control | 84 % of control | 104 % of control | 173 % of control | 107 % of control | 105 % of control |
| O=C1NC(=O)C2=C1c1cn(c3ccccc13)CCCc1ccc(c(N3CCCC3)n1)CCCn1cc2c2ccccc21 [Cpd 7, 31-pyrrolidin-1-yl-5,15,25,30-tetraazaheptacyclo[27.2.2.1^5,12.1^18,25.0^6,11.0^13,17.0^19,24]pentatriaconta-1(31),6,8,10,12(35),13(17),18(34),19,21,23,29,32-dodecaene-14,16-dione] | 111 % of control | 121 % of control | 102 % of control | 100 % of control | 74 % of control | 110 % of control | 91 % of control | 91 % of control | 176 % of control | 108 % of control | 106 % of control |
